Results from patent publication US20250230138A1, “COMPOUNDS HAVING A T-STRUCTURE FORMED BY AT LEAST FOUR CYCLES FOR USE IN THE TREATMENT OF CANCER AND OTHER INDICATIONS” (TheRas, Inc., priority 2022, published 2025).
Read-outs that look alike come from different tables or passages of the source.

Columns and labels:
[1] = target: Cys242 in human PIK3CA (157-299) (Homo sapiens (Human), UniProt P42336); experiment: Covalent modification assay using MALDI-TOF MS; type: biochemical; settings: 4 h reaction time point
Outline: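 PIK3CA (157-299) at 3.33 μM or 1 μM in 20 mM HEPES, 150 mM NaCl, 2 mM MgCl2, pH 7.3 was incubated with compound (from 10 mM DMSO stocks) in the dark at room temperature for 15 min, 30 min, 2 h or 4 h. Linear-mode MALDI-TOF peak heights gave percent modification.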

pAKT in BT474 cells = experiment: Cell-based pAKT HTRF assay in BT474 cells; settings: BT474 cells, 4 hr incubation, read-out: pAKT inhibition IC50 in BT474 cells
Outline: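 BT474 cells in DMEM/10% FBS were treated the day after seeding with a 9-point, 3-fold compound series from 3 μM (0.25% DMSO) for 4 hr. Lysates were mixed with d2 and Eu cryptate anti-pAKT antibodies and incubated 4-24 h at room temperature. HTRF was read with excitation at 320 nm and emission at 615 nm.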

[2] = 1 μM protein target, 1:5 protein to compound ratio (compounds 853-1279)
[3] = 3.33 μM protein target, 1:7.5 protein to compound ratio (compounds 1-852)
[4] = Homo sapiens, BT-474, Compounds 10-999

Sequence of Cys242 in human PIK3CA (157-299) (P42336 157-299): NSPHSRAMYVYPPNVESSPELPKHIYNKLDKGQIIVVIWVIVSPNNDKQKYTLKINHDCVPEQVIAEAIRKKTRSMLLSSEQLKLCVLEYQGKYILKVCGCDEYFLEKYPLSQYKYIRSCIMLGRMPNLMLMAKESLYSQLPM

SMILES | % of modification [1, 2] | IC50 (pAKT in BT474 cells; Compounds 1000-1279) [nM] | % of modification [1, 3] | IC50 (pAKT in BT474 cells; Compounds 10-999) [nM] | IC50 (pAKT in BT474 cells; [4]) [nM]
C=CC(=O)N1CCn2nc(-c3nc(-c4ccc(OCCN5CCC5)cc4)c4ccsc4c3-c3c(F)cc(F)cc3OCCOC)cc2C1C (stereo not drawn) [Compound 1073] | A (percent of modification of PIK3CA protein ≥75%) | < 100 |  |  | 
C=CC(=O)N1CCc2ccc(-c3nc(-c4cccc(OCCN(C)C)c4)c4ccsc4c3-c3c(F)cc(F)cc3OCCOC)cc2C1 [Compound 1184] | A (percent of modification of PIK3CA protein ≥75%) | 100 to 1000 |  |  | 
C=CC(=O)N1CCn2nc(-c3nc(-c4ccc5c(c4)CCN(C)C5)c4ccsc4c3-c3c(F)cc(F)cc3OCC(C)O)cc2C1C (stereo not drawn) [Compound 550] |  |  | A (percent of modification of PIK3CA protein ≥75%) | < 100 | 
C=CC(=O)N1CC(n2cc(-c3nc(-c4ccnc(N)c4)c4ccsc4c3-c3ccc(F)cc3OCCOC)cn2)C1 [Compound 234] |  |  | A (percent of modification of PIK3CA protein ≥75%) | < 100 | 
C=CC(=O)N1CCc2ncc(-c3nc(-c4ccc5c(c4)CS(=O)(=O)C5)c4ccsc4c3-c3ccc(F)cc3OCCOC)cc2C1 [Compound 111] |  |  | A (percent of modification of PIK3CA protein ≥75%) | < 100 | 
C=CC(=O)N1Cc2cc(-c3nc(-c4ccc5c(c4)CNC5=O)c4ccsc4c3-c3c(F)cc(F)cc3OC[C@@H](C)O)nn2C[C@H]1C [Compound 756] |  |  | A (percent of modification of PIK3CA protein ≥75%) | < 100 | 
C=CC(=O)N1CCn2nc(-c3nc(-c4cn(C)cn4)c4ccsc4c3-c3c(F)cc(F)cc3OC[C@@H](C)O)cc2[C@H]1C [Compound 744] |  |  | A (percent of modification of PIK3CA protein ≥75%) | < 100 | 
C=CC(=O)N1CC(n2cc(-c3nc(-c4cnn(CC5CC5(F)F)c4)c4ccsc4c3-c3ccc(F)cc3OCCOC)cn2)C1 (stereo not drawn) [Compound 237] |  |  | A (percent of modification of PIK3CA protein ≥75%) | 100 to 1000 | 
C=CC(=O)N1CCn2nc(-c3nc(-c4ccc5c(c4)CCN(C(C)C)C5)c4ccsc4c3-c3ccc(F)cc3OC(F)F)nc2C1 [Compound 218] |  |  | A (percent of modification of PIK3CA protein ≥75%) | < 100 | 
C=CC(=O)N1Cc2cc(-c3nc(-c4ccc(C5(N)COC5)cc4)c4ccsc4c3-c3c(F)cc(F)cc3OC(C)C)nn2[C@@H](C)C1 [Compound 511] |  |  | A (percent of modification of PIK3CA protein ≥75%) | < 100 | 
C=CC(=O)N1CCc2ncc(-c3nc(-c4ccc5c(c4)CCNC5)c4c(c3-c3ccc(F)cc3OC)CCC4)cc2C1 [Compound 89, 1-[3-[4-(4-fluoro-2-methoxy-phenyl)-1-(1,2,3,4-tetrahydroisoquinolin-6-yl)-6,7-dihydro-5H-cyclopenta[c]pyridin-3-yl]-7,8-dihydro-5H-1,6-naphthyridin-6-yl]prop-2-en-1-one] |  |  | A (percent of modification of PIK3CA protein ≥75%) |  | 100 to 1000
C=CC(=O)N1CCc2nc(-c3nc(-c4ccc5c(c4)CCC(N(C)C)C5)c4ccsc4c3-c3ccc(F)cc3OCCOC)sc2C1 (stereo not drawn) [Compound 148] |  |  | A (percent of modification of PIK3CA protein ≥75%) | < 100 | 
C=CC(=O)N1CCn2nc(-c3nc(-c4cncc(CN(C)C)c4)c4ccsc4c3-c3c(F)cc(F)cc3OCCOC)cc2C1C (stereo not drawn) [Compound 1141] | A (percent of modification of PIK3CA protein ≥75%) | < 100 |  |  | 
C=CC(=O)N1CCc2ccc(-c3nc(-c4ccc5c(c4)CN(CCOC)CC5(F)F)c4ccsc4c3-c3c(F)cc(F)cc3OCCOC)cc2C1 [Compound 1277] | D (percent of modification <25%) | > 1000 |  |  | 
C=CC(=O)N1Cc2cc(-c3nc(-n4cnc(C)c4)c4ccsc4c3-c3c(F)cc(F)cc3OCCOC)nn2C[C@H]1C [Compound 824] |  |  | A (percent of modification of PIK3CA protein ≥75%) | < 100 | 
C=CC(=O)N1CC(n2cc(-c3nc(-c4ccc5c(c4)CCNC5)c4ccsc4c3-c3ccc(F)cc3OCCOC)ccc2=O)C1 [Compound 157] |  |  | A (percent of modification of PIK3CA protein ≥75%) | < 100 | 
C=CC(=O)N1Cc2cc(-c3nc(-c4cnc5c(c4)CNC(=O)C5)c4ccsc4c3-c3c(F)cc(F)cc3OCCOC)nn2[C@@H](C)C1 [Compound 688] |  |  | A (percent of modification of PIK3CA protein ≥75%) | < 100 | 

SMILES | % of modification [1, 2] | IC50 (pAKT in BT474 cells; Compounds 1000-1279) [nM] | % of modification [1, 3] | IC50 (pAKT in BT474 cells; Compounds 10-999) [nM] | IC50 (pAKT in BT474 cells; [4]) [nM]
C=CC(=O)N1CCn2nc(-c3nc(-c4cnc5c(c4)CN(CCO)CC5)c4ccsc4c3-c3c(F)cc(F)cc3OCCOC)cc2[C@H]1C [Compound 1160] | A (percent of modification of PIK3CA protein ≥75%) | < 100 |  |  | 
C=C(F)C(=O)N1CCn2nc(-c3nc(-c4ccc5c(cnn5C)c4)c4ccsc4c3-c3c(F)cc(F)cc3OCCOC)cc2[C@H]1C [Compound 1226] | D (percent of modification <25%) | 100 to 1000 |  |  | 
C=CC(=O)N1CCc2ncc(-c3nc(-c4ccc5c(c4)CNC5=O)c4ccsc4c3-c3c(F)cc(F)cc3OC(C)C)cc2C1 [Compound 326] |  |  | A (percent of modification of PIK3CA protein ≥75%) | < 100 | 
C=CC(=O)N1CCn2nc(-c3nc(-c4ccc5c(cnn5C)c4)c4ccsc4c3-c3c(F)cc(F)cc3OCCO)cc2C1C (stereo not drawn) [Compound 1156] | D (percent of modification <25%) | < 100 |  |  | 
C=CC(=O)N1Cc2cc(-c3nc(-c4ccc5nn(C)cc5c4)c4ccsc4c3-c3c(F)cc(F)cc3OCCOC)nn2C[C@H]1C [Compound 668, 1-((R)-2-((S)-7-(2,4-difluoro-6-(2-methoxyethoxy)phenyl)-4-(2-methyl-2H-indazol-5-yl)thieno[3,2-c]pyridin-6-yl)-6-methyl-6,7-dihydropyrazolo[1,5-a]pyrazin-5(4H)-yl)prop-2-en-1-one] |  |  | A (percent of modification of PIK3CA protein ≥75%) | < 100 | 
C=CC(=O)N1C[C@H](C)n2nc(-c3nc(-c4ccc5ncn(C)c5c4)c4ccsc4c3-c3c(F)cc(F)cc3OCCOC)cc2[C@H]1C [Compound 604] |  |  | A (percent of modification of PIK3CA protein ≥75%) | < 100 | 
C=C(F)C(=O)N1Cc2cc(-c3nc(-c4ccc5c(c4)CCN(C)C5)c4ccsc4c3-c3c(F)cc(F)cc3OC(C)C)nn2CC1C (stereo not drawn) [Compound 473] |  |  | D (percent of modification <25%) | 100 to 1000 | 
C=CC(=O)N1CCc2nc(-c3nc(-c4cnn(C)c4)c4ccsc4c3-c3ccc(F)cc3OCC3CCNC(=O)C3)sc2C1 (stereo not drawn) [Compound 144, 4-[[5-fluoro-2-[4-(1-methylpyrazol-4-yl)-6-(5-prop-2-enoyl-6,7-dihydro-4H-thiazolo[5,4-c]pyridin-2-yl)thieno[3,2-c]pyridin-7-yl]phenoxy]methyl]piperidin-2-one] |  |  | A (percent of modification of PIK3CA protein ≥75%) |  | < 100
C=CC(=O)N1CCn2nc(-c3nc(-c4cnc(N5CCN(C)CC5)nc4)c4ccsc4c3-c3c(F)cc(F)cc3OCCOC)cc2[C@H]1C [Compound 951, 1-((R)-2-((S)-7-(2,4-difluoro-6-(2-methoxyethoxy)phenyl)-4-(2-(4-methylpiperazin-1-yl)pyrimidin-5-yl)thieno[3,2-c]pyridin-6-yl)-4-methyl-6,7-dihydropyrazolo[1,5-a]pyrazin-5(4H)-yl)prop-2-en-1-one] | A (percent of modification of PIK3CA protein ≥75%) |  |  |  | < 100
C=CC(=O)N1CCn2nc(-c3nc(-c4ccc5c(c4)CCN(C)C5)c4ccsc4c3-c3c(F)cc(F)cc3OCCOC)cc2[C@H]1C [Compound 510] |  |  | A (percent of modification of PIK3CA protein ≥75%) | < 100 | 
C=CC(=O)N1CCc2nc(-c3nc(-c4cnn(C)c4)c4ccsc4c3-c3c(F)cc(F)cc3OC(C)C)sc2C1 [Compound 339] |  |  | A (percent of modification of PIK3CA protein ≥75%) | < 100 | 
C=C(F)C(=O)N1CCn2nc(-c3nc(-c4ccc5c(c4)CCN(C)C5)c4ccsc4c3-c3c(F)cc(F)cc3OC(C)C)cc2C1 (single isomer, unassigned) [Compound 486] |  |  | A (percent of modification of PIK3CA protein ≥75%) | < 100 | 
C=CC(=O)N1CCc2ccc(-c3nc(-c4ccc5c(c4)CN(C)CC5(F)F)c4ccsc4c3-c3c(F)cc(F)cc3OCCOC)cc2C1 [Compound 1272] | D (percent of modification <25%) | > 1000 |  |  | 
C=CC(=O)N1CCn2nc(-c3nc(-c4ccc5c(c4)CNC5=O)c4c(c3-c3c(F)cc(F)cc3OCCOC)CCC4)cc2[C@H]1C [Compound 1174, 5-((R)-3-((R)-5-acryloyl-4-methyl-4,5,6,7-tetrahydropyrazolo[1,5-a]pyrazin-2-yl)-4-(2,4-difluoro-6-(2-methoxyethoxy)phenyl)-6,7-dihydro-5H-cyclopenta[c]pyridin-1-yl)isoindolin-1-one] | A (percent of modification of PIK3CA protein ≥75%) | < 100 |  |  | 
C=CC(=O)N1CCn2nc(-c3nc(-c4ccc5c(c4)c(C)nn5C)c4ccsc4c3-c3c(F)cc(F)cc3OCCO)cc2C1C (stereo not drawn) [Compound 1101] | A (percent of modification of PIK3CA protein ≥75%) | < 100 |  |  | 
C=CC(=O)N1CCc2cc(-c3nc(-c4ccc5c(c4)CNC(=O)C5)c4ccsc4c3-c3c(F)cc(F)cc3OCCOC)nn2CC1 [Compound 1024] | A (percent of modification of PIK3CA protein ≥75%) | < 100 |  |  | 
